Laboratory results from ChEMBL document CHEMBL1148666, “Inhibition of protein tyrosine phosphatase 1B by diterpenoids isolated from Acanthopanax koreanum” (Bioorg Med Chem Lett, 2006).

The compounds below were run against T1, Tyrosine-protein phosphatase non-receptor type 1 (Homo sapiens, UniProt P18031) (assay: Inhibition of human recombinant PTP1B).
T1 sequence (P18031 whole entry): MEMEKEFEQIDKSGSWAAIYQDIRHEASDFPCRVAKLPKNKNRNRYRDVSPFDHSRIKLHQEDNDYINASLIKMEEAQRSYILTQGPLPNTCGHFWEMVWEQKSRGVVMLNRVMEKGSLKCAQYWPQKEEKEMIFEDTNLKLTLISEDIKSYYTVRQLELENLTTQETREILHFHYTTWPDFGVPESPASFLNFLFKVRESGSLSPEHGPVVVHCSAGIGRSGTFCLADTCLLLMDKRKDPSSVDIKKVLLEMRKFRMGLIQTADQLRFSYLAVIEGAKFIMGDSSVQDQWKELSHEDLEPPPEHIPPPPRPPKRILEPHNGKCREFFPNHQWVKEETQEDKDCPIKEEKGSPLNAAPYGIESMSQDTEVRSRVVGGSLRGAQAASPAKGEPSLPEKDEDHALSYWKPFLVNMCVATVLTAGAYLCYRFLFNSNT

SMILES	IC50 [µM]
C=C[C@@]1(C)CC=C2C(CCC3[C@](C)(C(=O)O)CCC[C@@]23C)C1 (some centres undefined) [ACANTHOIC ACID]	23.5
C=C1C[C@@]23CC[C@H]4[C@@](C)(CCC[C@@]4(C)C(=O)O)[C@@H]2CC[C@@H]1C3 [KAURENOIC ACID]	20.2
CC(C)CC(=O)OC[C@H]1C[C@@]23CCC4[C@@](C)(CCC[C@@]4(C)C(=O)O)C2CC[C@@H]1C3 (some centres undefined)	7.1
C[C@@]12CCC[C@@](C)(C(=O)O)C1CC[C@@]13C[C@@H](CCC12)[C@](C)(O)C3 (some centres undefined)	> 30
C=C[C@]1(C)CC[C@@]2(O)[C@@H](C1)C(=O)CC1[C@](C)(C(=O)O)CCC[C@]12C (some centres undefined) [ACANTHOKOREOIC ACID A]	> 30
C=C[C@@]1(C)CC=C2C(CCC3[C@](C)(CO)CCC[C@@]23C)C1 (some centres undefined) [ACANTHOL]	> 30
CCCCCCCCCCCCCCCC(=O)C1=C(O)[C@@H](CO)OC1=O	4.5
C=C[C@]1(C)C=C2C(CC1)[C@]1(C)CCC[C@@](C)(C(=O)O)C1C[C@@H]2O (some centres undefined)	> 30
CC(C)CC(=O)OC[C@@]1(O)C[C@@]23CCC4[C@@](C)(CCC[C@@]4(C)C(=O)O)C2CC[C@@H]1C3 (some centres undefined)	> 30
